From patent publication US20250340577A1, “BETA-LACTOMASE INHIBITORS AND USES THEREOF” (Case Western Reserve University, priority 2021, published 2025)

Columns and labels:
Experiment in all cases: MIC with cefepime, agar microdilution, CLSI
Assay type in all cases: cell-based
K. pneumoniae 253 = conditions: compound fixed at 4 ug/ml; TEM-12, SHV-5, CTX-M
In short: (§1)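 Test compound kept at 4 ug/ml throughout, combined with cefepime. MICs were read by agar microdilution according to CLSI.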

E. coli pLTCF2 = conditions: compound fixed at 4 ug/ml
In short: as §1

E. coli DH10B pBC-SK P99 = conditions: compound fixed at 4 ug/ml
In short: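 MIC values come from agar microdilution run to CLSI guidelines. The compound was present at a constant 4 ug/ml while cefepime was varied.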

[1] = test system: E. coli DH10B pBC-SK PDC-3; conditions: compound fixed at 4 ug/ml
In short: as §1

E. coli 29838 = conditions: compound fixed at 4 ug/ml; CTX-M-14, TEM-1
In short: as §1

E. coli pLTCF1 = conditions: compound fixed at 4 ug/ml; CTX-M group 9
In short: as §1

K. pneumoniae 255 = conditions: compound fixed at 4 ug/ml; TEM-1, SHV-2
In short: as §1

[2] = test system: K. pneumoniae original KPC-2; conditions: compound fixed at 4 ug/ml
In short: as §1

[3] = test system: E. coli DH10B pBC-SK control; conditions: compound fixed at 4 ug/ml; B-lactamases none
In short: as §1

[4] = test system: E. coli DH10B pBC-SK SHV-2; conditions: compound fixed at 4 ug/ml
In short: as §1

K. pneumoniae ST258 B5 = conditions: compound fixed at 4 ug/ml; KPC-2
In short: as §1

K. pneumoniae 34700 = conditions: compound fixed at 4 ug/ml; CTX-M-15, SHV, TEM
In short: as §1

A. baumannii 0057 = conditions: compound fixed at 4 ug/ml; ADC-7
In short: as §1

K. pneumoniae 427 = conditions: compound fixed at 4 ug/ml; TEM-1, SHV-1, CTX-M-3
In short: as §1

K. pneumoniae ST258 C3 = conditions: compound fixed at 4 ug/ml; KPC-3
In short: as §1

Nc1nnc(SCC(=O)NC(Cn2cc(C(=O)O)nn2)B(O)O)s1 (stereo not drawn) [MB076]
MIC of cefepime in combination with compound (K. pneumoniae 253): 8 µg/mL
MIC of cefepime in combination with compound (E. coli pLTCF2): < 0.25 µg/mL
MIC of cefepime in combination with compound (E. coli DH10B pBC-SK P99): < 0.25 µg/mL
MIC of cefepime in combination with compound [1]: < 0.25 µg/mL
MIC of cefepime in combination with compound (E. coli 29838): < 0.25 µg/mL
MIC of cefepime in combination with compound (E. coli pLTCF1): < 0.25 µg/mL
MIC of cefepime in combination with compound (K. pneumoniae 255): 2 µg/mL
MIC of cefepime in combination with compound [2]: < 0.25 µg/mL
MIC of cefepime in combination with compound [3]: < 0.25 µg/mL
MIC of cefepime in combination with compound [4]: < 0.25 µg/mL
MIC of cefepime in combination with compound (K. pneumoniae ST258 B5): 8 µg/mL
MIC of cefepime in combination with compound (K. pneumoniae 34700): 1 µg/mL
MIC of cefepime in combination with compound (A. baumannii 0057): 64 µg/mL
MIC of cefepime in combination with compound (K. pneumoniae 427): < 0.25 µg/mL
MIC of cefepime in combination with compound (K. pneumoniae ST258 C3): 1 µg/mL
